Assays:
[1] = tested on: normal primary NK cells, pool 3 (3 donors) (IL-2 2.5 ng/mL); assay: percent inhibition of viability; higher = more inhibition; details: 72 h
YT (IL-2 2.5 ng/mL) [2] = assay: as above; details: 72 h
NK-YS (IL-2 2.5 ng/mL) [3] = assay: as above; details: 72 h
KHYG-1 (IL-2 2.5 ng/mL) [4] = assay: as above; details: 72 h
[5] = tested on: normal primary NK cells, pool 1 (3 donors), resting (IL-2 0 ng/mL); assay: as above; details: 72 h
KAI3 (IL-2 2.5 ng/mL) [6] = assay: as above; details: 72 h
NK-92 (IL-2 2.5 ng/mL) [7] = assay: as above; details: 72 h
NKL (IL-2 2.5 ng/mL) [8] = assay: as above; details: 72 h
[9] = tested on: normal primary NK cells, pool 2 (3 donors) (IL-2 2.5 ng/mL); assay: as above; details: 72 h
DERL-7 (IL-2 2.5 ng/mL) [10] = assay: as above; details: 72 h
SNK-6 (IL-2 2.5 ng/mL) [11] = assay: as above; details: 72 h
[12] = tested on: normal primary NK cells, pool 1 (3 donors) (IL-2 2.5 ng/mL); assay: as above; details: 72 h
IMC-1 (IL-2 20 ng/mL) [13] = assay: as above; details: 72 h
[14] = tested on: normal NK cells expanded with K562-aAPC; assay: drug sensitivity score (DSS) (DSS units); higher = more sensitive; extreme values may be limits of the assay; details: 72 h; IL-2 2.5 ng/mL
Description: (§1)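 Drug sensitivity and resistance testing on K562-aAPC-expanded normal NK cells: 5 concentrations (10-fold steps over a 10,000-fold range), 72 h at 37 °C, viability by CellTiter-Glo normalised to DMSO and benzethonium chloride controls; DSS from the fitted curve.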

[15] = tested on: normal primary NK cells, pool 3 (3 donors) (IL-2 2.5 ng/mL); assay: as above; details: 72 h
YT (IL-2 2.5 ng/mL) [16] = assay: as above; details: 72 h
NK-YS (IL-2 2.5 ng/mL) [17] = assay: as above; details: 72 h
KHYG-1 (IL-2 2.5 ng/mL) [18] = assay: as above; details: 72 h
[19] = tested on: normal primary NK cells, pool 1 (3 donors), resting (IL-2 0 ng/mL); assay: as above; details: 72 h
KAI3 (IL-2 2.5 ng/mL) [20] = assay: as above; details: 72 h
NK-92 (IL-2 2.5 ng/mL) [21] = assay: as above; details: 72 h
NKL (IL-2 2.5 ng/mL) [22] = assay: as above; details: 72 h
[23] = tested on: normal primary NK cells, pool 2 (3 donors) (IL-2 2.5 ng/mL); assay: as above; details: 72 h
DERL-7 (IL-2 2.5 ng/mL) [24] = assay: as above; details: 72 h
SNK-6 (IL-2 2.5 ng/mL) [25] = assay: as above; details: 72 h
[26] = tested on: normal primary NK cells, pool 1 (3 donors) (IL-2 2.5 ng/mL); assay: as above; details: 72 h
IMC-1 (IL-2 20 ng/mL) [27] = assay: as above; details: 72 h
[28] = tested on: normal NK cells expanded with K562-aAPC; assay: percent inhibition of viability; higher = more inhibition; details: 72 h, IL-2 2.5 ng/mL
Description: as §1

CNC(=O)c1cc(COc2nnc(Nc3ccc(Cl)cc3)c3ccoc23)ccn1 [Telatinib] (max concentration tested 10000 nM)
percent inhibition of viability [%]
Details | 1 nM | 10 nM | 100 nM | 1000 nM | 10000 nM
DERL-7 (IL-2 2.5 ng/mL) [10] | -7.49 | -0.52 | -1.32 | 7.55 | 16.5
IMC-1 (IL-2 20 ng/mL) [13] | -1.29 | 6.77 | 10.7 | 6.73 | 6.92
KAI3 (IL-2 2.5 ng/mL) [6] | -1.15 | -3.17 | -1.98 | 4.4 | 17.6
KHYG-1 (IL-2 2.5 ng/mL) [4] | -4.25 | 1.6 | 0.07 | 3.62 | 17.2
NK-92 (IL-2 2.5 ng/mL) [7] | -14.3 | 7.86 | 8.96 | 9.44 | 25.7
NK-YS (IL-2 2.5 ng/mL) [3] | -3.24 | -3.74 | 3.78 | 6.85 | 18
NKL (IL-2 2.5 ng/mL) [8] | 4.45 | 8.77 | 17.6 | 24.9 | 37.5
SNK-6 (IL-2 2.5 ng/mL) [11] | -6.76 | -18.2 | -10.9 | -17.2 | 39.8
YT (IL-2 2.5 ng/mL) [2] | -6.03 | -1.57 | 0.93 | 8.01 | 8.35
[1] | -12.1 | 2.04 | 1.9 | -5.46 | -0.21
[5] | -33.8 | -3.86 | 0.16 | -3.05 | 3.2
[9] | -8.51 | 7.4 | 6.24 | -6.6 | -0.18
[12] | -11.3 | 3.32 | 6.19 | 3.83 | 4.17
[28] | -1.26 | -3.44 | 0.95 | 10.9 | 8.85

Details | drug sensitivity score
DERL-7 (IL-2 2.5 ng/mL) [24] | 1
IMC-1 (IL-2 20 ng/mL) [27] | 0.48
KAI3 (IL-2 2.5 ng/mL) [20] | 0.91
KHYG-1 (IL-2 2.5 ng/mL) [18] | 0.8
NK-92 (IL-2 2.5 ng/mL) [21] | 1.85
NK-YS (IL-2 2.5 ng/mL) [17] | 0.7
NKL (IL-2 2.5 ng/mL) [22] | 7.2
SNK-6 (IL-2 2.5 ng/mL) [25] | 1.33
YT (IL-2 2.5 ng/mL) [16] | 0
[14] | 0.23
[15] | 0
[19] | 0
[23] | 0
[26] | 0

Nc1nc2[nH]cnc2c(=S)[nH]1 [Thioguanine] (max concentration tested 10000 nM)
percent inhibition of viability [%]
Details | 1 nM | 10 nM | 100 nM | 1000 nM | 10000 nM
DERL-7 (IL-2 2.5 ng/mL) [10] | -5.49 | 1.22 | -5.6 | 8.62 | 87.2
IMC-1 (IL-2 20 ng/mL) [13] | -5.55 | -1.21 | -1.21 | 33.3 | 97.2
KAI3 (IL-2 2.5 ng/mL) [6] | -7.74 | -2.97 | -0.62 | 15.1 | 78.8
KHYG-1 (IL-2 2.5 ng/mL) [4] | -13.1 | -8.14 | -0.41 | 99.5 | 106
NK-92 (IL-2 2.5 ng/mL) [7] | -10.2 | -5.6 | 17.5 | 52.7 | 98.4
NK-YS (IL-2 2.5 ng/mL) [3] | -7.28 | -5.53 | 13.5 | 84.7 | 95.8
NKL (IL-2 2.5 ng/mL) [8] | -14 | -21.1 | 1.79 | 26.9 | 93.4
SNK-6 (IL-2 2.5 ng/mL) [11] | -10.4 | -12.3 | -12.4 | 52.4 | 96.7
YT (IL-2 2.5 ng/mL) [2] | -6.35 | -2.99 | 5.94 | 87.9 | 105
[1] | -3.74 | -0.43 | 9.27 | 10.8 | 44
[5] | 1.38 | 16.6 | 9.25 | 15.6 | 37.5
[9] | -0.91 | -2.84 | 9.06 | 9.05 | 55
[12] | 2.84 | 12.9 | 10.3 | 6.9 | 52.7
[28] | -4.14 | -5.02 | -5.79 | 6.11 | 56.7

Details | drug sensitivity score
DERL-7 (IL-2 2.5 ng/mL) [24] | 6.23
IMC-1 (IL-2 20 ng/mL) [27] | 10
KAI3 (IL-2 2.5 ng/mL) [20] | 6.83
KHYG-1 (IL-2 2.5 ng/mL) [18] | 17.9
NK-92 (IL-2 2.5 ng/mL) [21] | 12.4
NK-YS (IL-2 2.5 ng/mL) [17] | 17.2
NKL (IL-2 2.5 ng/mL) [22] | 9.15
SNK-6 (IL-2 2.5 ng/mL) [25] | 11.7
YT (IL-2 2.5 ng/mL) [16] | 16.8
[14] | 4.06
[15] | 3.64
[19] | 4.42
[23] | 4.48
[26] | 3.98

— the supplement of paper PMC5908809
